Test results taken from patent US9580390B2, “Indazole compounds as kinase inhibitors and method of treating cancer with same” (University Health Network, priority 2011, dated 2017).
pIC50: −log10 of the molar value. Like-named read-outs stand apart in the source and are kept apart here.

Tests used:
[1] = tested on: TICs (Colon 12); assay: Colon tumor-initiating cell growth inhibition (Alamar Blue); format: cell-based; details: 216 h, 9 days, read-out: Tumor Initiating Cell GI50 Range Colon 12
[2] = tested on: ovarian cancer cells (PA-1); assay: Cancer cell line growth inhibition (SRB assay); format: cell-based; details: read-out: Cancer Cell Line GI50 Range PA-1
[3] = molecular target: T1, human TTK (Homo sapiens, UniProt P33981); assay: TTK inhibition assay (indirect ELISA); format: biochemical
T1 construct: amino terminal GST fusion of full length human TTK; purchased Invitrogen
T1 sequence (P33981 1-857): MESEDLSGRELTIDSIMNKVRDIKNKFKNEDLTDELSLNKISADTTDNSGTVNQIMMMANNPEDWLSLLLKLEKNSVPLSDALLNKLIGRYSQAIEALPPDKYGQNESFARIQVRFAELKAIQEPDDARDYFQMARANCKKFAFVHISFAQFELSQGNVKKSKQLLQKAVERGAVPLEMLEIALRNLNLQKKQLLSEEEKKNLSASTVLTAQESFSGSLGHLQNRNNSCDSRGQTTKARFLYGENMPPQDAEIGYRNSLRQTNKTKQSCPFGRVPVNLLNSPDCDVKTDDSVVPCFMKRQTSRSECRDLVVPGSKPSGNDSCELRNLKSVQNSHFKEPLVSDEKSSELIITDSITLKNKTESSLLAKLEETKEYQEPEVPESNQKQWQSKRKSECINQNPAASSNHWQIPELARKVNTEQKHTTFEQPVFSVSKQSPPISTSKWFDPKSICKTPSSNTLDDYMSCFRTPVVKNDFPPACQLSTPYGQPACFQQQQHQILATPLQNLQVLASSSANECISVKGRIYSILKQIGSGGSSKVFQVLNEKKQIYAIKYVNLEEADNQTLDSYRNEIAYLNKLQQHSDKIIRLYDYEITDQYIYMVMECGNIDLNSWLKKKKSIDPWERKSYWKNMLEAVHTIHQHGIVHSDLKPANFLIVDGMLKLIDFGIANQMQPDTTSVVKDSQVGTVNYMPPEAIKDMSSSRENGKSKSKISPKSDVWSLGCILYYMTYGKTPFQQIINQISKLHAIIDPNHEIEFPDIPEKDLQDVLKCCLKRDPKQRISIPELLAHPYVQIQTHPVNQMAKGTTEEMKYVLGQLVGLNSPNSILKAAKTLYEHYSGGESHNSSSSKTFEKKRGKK

[4] = tested on: colon cancer cells (HCT116); assay: Cancer cell line growth inhibition (SRB assay); format: cell-based; details: Homo sapiens, HCT-116, read-out: Cancer Cell Line GI50 Range HCT116
[5] = tested on: TICs (Ovarian 2393A); assay: Ovarian tumor-initiating cell growth inhibition (Alamar Blue); format: cell-based; details: 144 h, 6 days, read-out: Tumor Initiating Cell GI50 Range Ovarain 2393A
[6] = PA-1 ovarian cancer cells, SRB assay
[7] = HCT116 colon cancer cells, SRB assay

Row | GI50 ([1]; colon TICs, Alamar Blue) [nM] | GI50 [2, 6] [nM] | GI50 [4, 7] [nM] | GI50 ([5]; ovarian TICs, Alamar Blue) [nM] | SMILES | GI50 ([1]; Colon 12 TICs) [nM] | GI50 ([2]; Homo sapiens, PA-1) [nM] | pIC50 ([3]; read-out: TTK IC50 Range) | GI50 [4] [nM] | GI50 ([5]; Ovarian 2393A TICs) [nM] | pIC50 [3]
1 |  |  |  |  | O=CN1C2CCC1CC(Oc1ccc(-c3n[nH]c4ccc(C(=O)N[C@H](c5ccccn5)C5CC5)cc34)cc1)C2 (stereo partly drawn) [Example A322, N-((S)-cyclopropyl(pyridin-2-yl)methyl)-3-(4-(((1R,3R,5S)-8-formyl-8-azabicyclo[3.2.1]octan-3-yl)oxy)phenyl)-1H-indazole-5-carboxamide] | < 100 | < 100 | > 7.00 | < 100 | < 100 | 
2 |  |  |  |  | O=CN1C2CCC1CC(Oc1ccc(-c3n[nH]c4ccc(C(=O)N[C@H](c5ccccc5)C5CC5)cc34)cc1)C2 (stereo partly drawn) [Example A328, N-((S)-cyclopropyl(phenyl)methyl)-3-(4-(((1R,3R,5S)-8-formyl-8-azabicyclo[3.2.1]octan-3-yl)oxy)phenyl)-1H-indazole-5-carboxamide] | < 100 | < 100 | > 7.00 | < 100 | 100 to 500 | 
3 |  |  |  |  | O=CN1[C@@H]2CC[C@H]1C[C@@H](Oc1ccc(-c3n[nH]c4ccc(C(=O)NC(c5ccsc5)C5CCC5)cc34)cc1)C2 (stereo partly drawn) [Example A329, N-(cyclobutyl(thiophen-3-yl)methyl)-3-(4-(((1R,3R,5S)-8-formyl-8-azabicyclo[3.2.1]octan-3-yl)oxy)phenyl)-1H-indazole-5-carboxamide] | < 100 | < 100 | > 7.00 | < 100 | < 100 | 
4 |  |  |  |  | CC(C)[C@H](NC(=O)c1ccc2[nH]nc(-c3ccc(OC4CCN(C5COC5)CC4)cc3)c2c1)c1ccccc1Cl [Example A332, (S)-N-(1-(2-chlorophenyl)-2-methylpropyl)-3-(4-((1-(oxetan-3-yl)piperidin-4-yl)oxy)phenyl)-1H-indazole-5-carboxamide] | < 100 | < 100 | > 7.00 | < 100 | < 100 | 
5 |  |  |  |  | O=C(N[C@H](c1ccccc1Cl)C1CC1)c1ccc2[nH]nc(-c3ccc(OC4CC5CCC(C4)N5C4COC4)cc3)c2c1 (stereo partly drawn) [Example A349, N-((S)-(2-chlorophenyl)(cyclopropyl)methyl)-3-(4-(((1R,3R,5S)-8-(oxetan-3-yl)-8-azabicyclo[3.2.1]octan-3-yl)oxy)phenyl)-1H-indazole-5-carboxamide] | < 100 | < 100 | > 7.00 | < 100 | < 100 | 
6 |  |  |  |  | O=CN1C2CCC1CC(Oc1ccc(-c3n[nH]c4ccc(C(=O)N[C@H](c5ccccc5Cl)C5CC5)cc34)cc1)C2 (stereo partly drawn) [Example A350, N-((S)-(2-chlorophenyl)(cyclopropyl)methyl)-3-(4-(((1R,3R,5S)-8-formyl-8-azabicyclo[3.2.1]octan-3-yl)oxy)phenyl)-1H-indazole-5-carboxamide] | < 100 | < 100 | > 7.00 | < 100 | < 100 | 
7 |  |  |  |  | O=C(N[C@H](c1ccccn1)C1CC1)c1ccc2[nH]nc(-c3ccc(N4C5CCC4CC(O)C5)cc3)c2c1 (stereo partly drawn) [Example A361, N-((S)-cyclopropyl(pyridin-2-yl)methyl)-3-(4-((1R,3S,5S)-3-hydroxy-8-azabicyclo[3.2.1]octan-8-yl)phenyl)-1H-indazole-5-carboxamide] | < 100 | < 100 |  | < 100 | < 100 | > 7.00
8 |  |  |  |  | CC(C)[C@H](NC(=O)c1ccc2[nH]nc(-c3ccc(N4CCCN(C5COC5)CC4)cc3)c2c1)c1ccccc1Cl [Example A369, (S)-N-(1-(2-chlorophenyl)-2-methylpropyl)-3-(4-(4-(oxelan-3-yl)-1,4-diazepan-l-yl)phenyl)-1H-indazole-5-carboxamide] | < 100 | < 100 | > 7.00 | < 100 | < 100 | 
9 |  |  |  |  | O=C(N[C@H](c1ccccn1)C1CC1)c1ccc2[nH]nc(-c3ccc(OC4CC5CCC(C4)N5)cc3)c2c1 (stereo partly drawn) [Example A374, 3-(4-((1R,3R,5S)-8-azabicyclo[3.2.1]octan-3-yloxy)phenyl)-N-((S)-cyclopropyl(pyridin-2-yl)methyl)-1H-indazole-5-carboxamide] | > 500 | < 100 | > 7.00 | < 100 | 100 to 500 | 
10 |  |  |  |  | C[C@@H](O)C(=O)N1CCC(Oc2ccc(-c3n[nH]c4ccc(C(=O)N[C@H](c5ccccc5)C5CC5)cc34)cc2)CC1 [Example A379, N-((S)-cyclopropyl(phenyl)methyl)-3-(4-((1-((R)-2-hydroxypropanoyl)piperidin-4-yl)oxy)phenyl)-1H-indazole-5-carboxamide] | < 100 | 100 to 500 | > 7.00 | 100 to 500 | 100 to 500 | 
11 |  |  |  |  | CN1[C@@H]2CC[C@H]1C[C@@H](Oc1ccc(-c3n[nH]c4ccc(C(=O)NC(c5ncccn5)C5CCCC5)cc34)cc1)C2 (stereo partly drawn) [Example A385, N-(cyclopentyl(pyrimidin-2-yl)methyl)-3-(4-(((1R,3R,5S)-8-methyl-8-azabicyclo[3.2.1]octan-3-yl)oxy)phenyl)-1H-indazole-5-carboxamide] | 100 to 500 | < 100 | > 7.00 | < 100 | < 100 | 
12 |  |  |  |  | O=C(NC(c1ccccn1)C1CCCC1)c1ccc2[nH]nc(-c3ccc(N4CCN(C5COC5)CC4)cc3)c2c1 (stereo not drawn) [Example A402, N-(cyclopentyl(pyridin-2-yl)methyl)-3-(4-(4-(oxetan-3-yl)piperazin-1-yl)phenyl)-1H-indazole-5-carboxamide] | < 100 | < 100 | > 7.00 | < 100 | < 100 | 
13 |  |  |  |  | O=C(N[C@H](c1ccccn1)C1CCCC1)c1ccc2[nH]nc(-c3ccc(N4[C@@H]5CCC[C@H]4COC5)cc3)c2c1 [Example A418, 3-(4-((1R,5S)-3-oxa-9-azabicyclo[3.3.1]nonan-9-yl)phenyl)-N-((S)-cyclopentyl(pyridin-2-yl)methyl)-1H-indazole-5-carboxamide] | < 100 | < 100 |  | < 100 | < 100 | > 7.00
14 |  |  |  |  | O=C(N[C@@H](c1ccccn1)C1CC1)c1ccc2[nH]nc(-c3ccc(N4[C@@H]5CC[C@H]4COC5)cc3)c2c1 [Example A422, 3-(4-((1R,5S)-3-oxa-8-azabicyclo[3.2.1]octan-8-yl)phenyl)-N-((R)-cyclopropyl(pyridin-2-yl)methyl)-1H-indazole-5-carboxamide] | < 100 | < 100 | > 7.00 | < 100 | 100 to 500 | 
15 | < 100 | < 100 | < 100 | < 100 | O=C(NCC1(N2CCOCC2)CCCCC1)c1ccc2[nH]nc(-c3ccc(N4CCOCC4)cc3)c2c1 [Example A447, N-((1-morpholinocyclohexyl)methyl)-3-(4-morpholinophenyl)-1H-indazole-5-carboxamide] |  |  | > 7.00 |  |  | 
16 | < 100 | < 100 | < 100 | 100 to 500 | CN1CCN(c2ccc(-c3n[nH]c4ccc(C(=O)NCC5(N6CCOCC6)CCCCC5)cc34)cc2)CC1 [Example A453, 3-(4-(4-methylpiperazin-1-yl)phenyl)-N-((1-morpholinocyclohexyl)methyl)-1H-indazole-5-carboxamide] |  |  | > 7.00 |  |  | 
17 | 100 to 500 | < 100 | < 100 | 100 to 500 | CN1CC[C@@H](Oc2ccc(-c3n[nH]c4ccc(C(=O)NCC5(N6CCOCC6)CCCCC5)cc34)cc2)[C@@H](F)C1 [Example A455, 3-(4-(((3S,4R)-3-fluoro-1-methylpiperidin-4-yl)oxy)phenyl)-N-((1-morpholinocyclohexyl)methyl)-1H-indazole-5-carboxamide] |  |  | > 7.00 |  |  | 
18 | > 500 | 100 to 500 | 100 to 500 | > 500 | CN1CCC(Oc2ccc(-c3n[nH]c4ccc(C(=O)NCC5(c6cccnc6)CCCCC5)cc34)cc2)CC1 [Example A482, 3-(4-((1-methylpiperidin-4-yl)oxy)phenyl)-N-((1-(pyridin-3-yl)cyclohexyl)methyl)-1H-indazole-5-carboxamide] |  |  | > 7.00 |  |  | 
